Results: patent US10538497B2, “Compounds as indoleamine 2,3-dioxygenase inhibitors” (Merck Sharp & Dohme Corp., priority 2015, dated 2020)

How the values were obtained:
[1] = target: T1, IDO1 (Homo sapiens (Human), UniProt P14902); assay: IDO1 Enzyme Assay; settings: read-out: IDO1 Enzyme Assay, IC50; HIS-tagged recombinant IDO1, 40 nM
[2] = target: T1, IDO1; assay: IDO1 Human Whole Blood Assay; assay type: cell-based; settings: LPS and IFNγ 100 ng/mL, kynurenine by LC/MS/MS
Description: IDO1 Human Whole Blood Assay
LPS and IFNγ was prepared in RPMI to a 10× of final conc. (1000 ng/mL), final concentration is 100 ng/mL.
Human whole blood was drawn in sodium heparin coated tubes from healthy internal donors. Two hundred fourty μL of blood was transferred to each of the wells of a v-bottom 96 well plate. Thirty μL of compound was transferred from intermediate dilution plate, and incubated for 15 min. […] from stimulants was then transferred to blood and mixed thoroughly. Plate was covered with breathable membrane and incubated at 37° C. for overnight (18 h).
On day 2 isotope labeled standard of kunurenine and tryptophan was made in water at 10× concentration and 30 μL was added to the blood at 3 μM final concentration. The assay plates were centrifuged at 300×G for 10 min with no brake to separate plasma from red blood cells. Sixty μL of plasma samples was removed without disturbing red blood cells. Plasma was diluted with RPMI in 1:1 ratio and proteins were precipitated out with two volume of Acetonitrile. The plates was centrifuged at 4000×G for 60 min. Twenty μL of supernatant was carefully transferred to a 384 well plate contain 40 μL of 0.1% formic acid in water and analysed by LC/MS/MS.
LC/MS/MS analyses were performed using Thermo Fisher's LX4-TSQ Quantum Ultra system. This system consists of four Agilent binary high-performance liquid chromatography (HPLC) pumps and a TSQ Quantum Ultra triple quadrupole MS/MS instrument. For each sample, 5 μL were injected onto an Atlantis T3 column column (2.1 mm×150 mm, 3 μm particle size) from Waters. The mobile phase gradient pumped at 0.8 mL/min was used to elute the analytes from the column at 25° C. The elution started at 0% B increasing linearly to 25% B at 6.5 min, holding at 25% for 1 min, re-equilibrating to 10 min. Mobile phase A consisted of 0.1% formic acid in water. Mobile phase B consisted of 0.1% of formic acid in acetonitrile. Data was acquired in positive mode using a HESI interface. The operational parameters for the TSQ Quantum Ultra instrument were a spray voltage of 4000 V, capillary temperature of 380° C., vaporizer temperature 400° C., shealth gas 60 arbitrary units, Aux gas 20 arbitrary units, tube lens 85 and collision gas 1.2 mTorr. SRM chromatograms of kynurenine (Q1: 209.2>Q3:94.0) and internal standard (Q1: 215.3>Q3:98.2) were collected for 90 sec. The peak area was integrated by Xcalibur Quan software. The ratios between the kynurenine generated in the reaction and 2D6-Kynurenine spiked-in internal standard were used to generate percentage inhibition and IC50 values. Compounds were titrated and IC50's were calculated by 4 parameter sigmoidal curve fitting formula.

[3] = target: T1, IDO1; assay: IDO1 Cellular Assay in Hela Cells Stimulated with IFNγ; assay type: cell-based; settings: Hela cells stimulated with IFNγ 100 ng/mL; read-out: IDO1 HELA Cell Assay, IC50
[4] = target: T1, IDO1; assay: IDO1 Cellular Assay in Frozen HEK293 Cells Transiently Transfected with Human IDO1; assay type: cell-based; settings: read-out: IDO1 HEK293 Cell Assay, IC50
[5] = HEK293 cells transiently transfected with human IDO1

T1 sequence (P14902 whole entry): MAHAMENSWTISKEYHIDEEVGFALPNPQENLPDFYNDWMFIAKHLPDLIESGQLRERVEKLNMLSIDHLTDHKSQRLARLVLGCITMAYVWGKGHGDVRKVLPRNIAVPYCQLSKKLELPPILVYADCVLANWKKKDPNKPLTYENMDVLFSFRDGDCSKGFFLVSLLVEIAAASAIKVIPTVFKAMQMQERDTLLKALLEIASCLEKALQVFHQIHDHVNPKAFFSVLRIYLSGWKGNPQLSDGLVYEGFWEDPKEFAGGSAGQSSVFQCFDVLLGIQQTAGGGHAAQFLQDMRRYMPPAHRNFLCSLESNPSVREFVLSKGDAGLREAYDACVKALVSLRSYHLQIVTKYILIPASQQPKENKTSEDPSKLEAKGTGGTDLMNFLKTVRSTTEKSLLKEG

| Compound | IC50 [1] [nM] | IC50 [2] [nM] | IC50 [3] [nM] | IC50 [4, 5] [nM] | IC50 [4] [nM] |
| --- | --- | --- | --- | --- | --- |
| COC(=O)CNP(=O)(CCSc1nonc1/C(=N/O)Nc1ccc(F)c(Br)c1)NCC(=O)OC [Example 44, Dimethyl 2,2′-(((2-((4-(N-(3-bromo-4-fluorophenyl)-N′-hydroxycarbamimidoyl)-1,2,5-oxadiazol-3-yl)thio)ethyl)phosphoryl)bis(azanediyl))(Z)-diacetate] | 18.1 | 130 | 8.6 | 17.5 | – |
| CNC(=O)NCCSc1nonc1/C(=N/O)Nc1ccc(F)c(Br)c1 [Example 45, N-(3-bromo-4-fluorophenyl)-N′-hydroxy-4-((2-(3-methylureido)ethyl)thio)-1,2,5-oxadiazole-3-carboximidamide] | 22.5 | 405 | 47.7 | – | 24.3 |
| O=C1CC[C@@H](CSc2nonc2/C(=N/O)Nc2ccc(F)c(Br)c2)N1 [Example 84, N-(3-bromo-4-fluorophenvl)-N′-hydroxy-4-({[(2S)-5-oxopyrrolidin-2-yl]methyl}sulfanyl)-1,2,5-oxadiazole-3-carboximidamide] | 37.5 | 184 | 27.2 | 33.1 | – |
| O=c1cccc(CSc2nonc2/C(=N/O)Nc2ccc(F)c(Br)c2)[nH]1 [Example 86, N-(3-bromo-4-fluorophenyl)-N′-hydroxy-4-{[(6-oxo-1,6-dihydropyridin-2-yl)methyl]sulfanyl}-1,2,5-oxadiazole-3-carboximidamide] | 32.3 | 4120 | 15.7 | 41.6 | – |
| Cn1c(CSc2nonc2/C(=N/O)Nc2ccc(F)c(Br)c2)n[nH]c1=O [Example 98, N-(3-bromo-4-fluorophenyl)-N′-hydroxy-4-{[(4-methyl-5-oxo-4,5-dihydro-1H-1,2,4-triazol-3-yl)methyl]sulfanyl}-1,2,5-oxadiazole-3-carboximidamide] | 37.8 | 635 | 57.1 | 83 | – |
| Cc1cc(CSc2nonc2/C(=N/O)Nc2ccc(F)c(Br)c2)[nH]c(=O)c1 [Example 102, N-(3-bromo-4-fluorophenyl)-N′-hydroxy-4-{[(4-methyl-6-oxo-1,6-dihydropyridin-2-yl)methyl]sulfanyl}-1,2,5-oxadiazole-3-carboximidamide] | 72.4 | > 10000 | 81.8 | 44.4 | – |
| COC(=O)CNP(=O)(CSc1nonc1/C(=N/O)Nc1ccc(F)c(Br)c1)NCC(=O)OC [Example 120, methyl 6-[({4-[N-(3-bromo-4-fluorophenyl)-N′-hydroxycarbamimidoyl]-1,2,5-oxadiazol-3-yl}sulfanyl)methyl]-3-oxo-2-oxa-5,7-diaza-6-phosphanonan-9-oate 6-oxide] | 14 | 155 | 28.4 | 13.4 | – |
| N[C@H](CO)CSc1nonc1/C(=N/O)Nc1ccc(F)c(Br)c1 [Example 125, 4-{[(2R)-2-amino-3-hydroxypropyl]sulfanyl}-N-(3-bromo-4-fluorophenyl)-N′-hydroxy-1,2,5-oxadiazole-3-carboximidamide] | 51.9 | 745 | 131 | 45 | – |
| N#Cc1cc(N/C(=N\O)c2nonc2SC[C@@H](O)CO)ccc1F [Example 140, N-(3-cyano-4-fluorophenyl)-4-{[(2S)-2,3-dihydroxypropyl]sulfanyl}-N′-hydroxy-1,2,5-oxadiazole-3-carboximidamide] | 96.7 | 384 | 245 | 269 | – |
| O=C(CSc1nonc1/C(=N/O)Nc1ccc(F)c(Br)c1)NC(CO)CO [Example 145, 2-({4-[N-(3-bromo-4-fluorophenyl)-N′-hydroxycarbamimidoyl]-1,2,5-oxadiazol-3-yl}sulfanyl)-N-[2-hydroxy-1-(hydroxymethyl)ethyl]acetamide] | 50.9 | 1270 | 68 | 77.1 | – |
| CN1C(=O)NC[C@H]1CSc1nonc1/C(=N/O)Nc1ccc(F)c(C#N)c1 [Example 146] | 155 | 1400 | 398 | 222 | – |
| N#Cc1cc(N/C(=N\O)c2nonc2SC[C@H](O)CO)ccc1F [Example 147, N-(3-cyano-4-fluorophenyl)-4-{[(2R)-2,3-dihydroxypropyl]sulfanyl}-N′-hydroxy-1,2,5-oxadiazole-3-carboximidamide] | 154 | 1210 | 494 | 373 | – |
| N#Cc1cc(N/C(=N\O)c2nonc2SC[C@H]2CCC(=O)N2)ccc1F [Example 148, N-(3-cyano-4-fluorophenyl)-N′-hydroxy-4-({[(2R)-5-oxopyrrolidin-2-yl]methyl}sulfanyl)-1,2,5-oxadiazole-3-carboximidamide] | 172 | 1760 | 303 | 209 | – |
| N#Cc1cc(N/C(=N\O)c2nonc2SC[C@@H]2CCC(=O)N2)ccc1F [Example 149, N-(3-cyano-4-fluorophenyl)-N′-hydroxy-4-({[(2S)-5-oxopyrrolidin-2-yl]methyl}sulfanyl)-1,2,5-oxadiazole-3-carboximidamide] | 110 | 1050 | 285 | 120 | – |
| OC[C@@H](O)CSc1nonc1/C(=N/O)Nc1ccc(F)c(C(F)F)c1 [Example 168, N-[3-(difluoromethyl)-4-fluorophenyl]-4-{[(2R)-2,3-dihydroxypropyl]sulfanyl}-N′-hydroxy-1,2,5-oxadiazole-3-carboximidamide] | 69.1 | 475 | 111 | 55.1 | – |
| OC[C@@H](O)CSc1nonc1/C(=N/O)Nc1ccc(F)c(Cl)c1 [Example 169, N-(3-chloro-4-fluorophenyl)-4-{[(2R)-2,3-dihydroxypropyl]sulfanyl}-N′-hydroxy-1,2,5-oxadiazole-3-carboximidamide] | 52.8 | 1290 | 191 | 93.7 | – |
| CS(=O)(=O)NCCSc1nonc1/C(=N/O)Nc1ccc(F)c(C#N)c1 [Example 171, N-(3-cyano-4-fluorophenyl)-N′-hydroxy-4-({2-[(methylsulfonyl)amino]ethyl}sulfanyl)-1,2,5-oxadiazole-3-carboximidamide] | 110 | 660 | 120 | 30.8 | – |
| CC(=O)N[C@H](CO)CSc1nonc1/C(=N/O)Nc1ccc(F)c(Br)c1 [Example 173, N-[(1R)-2-({4-[N-(3-bromo-4-fluorophenyl)-N′-hydroxycarbamimidoyl]-1,2,5-oxadiazol-3-yl}sulfanyl)-1-(hydroxymethyl)ethyl]acetamide] | 93.7 | 827 | 246 | 155 | – |
| O=C(CSc1nonc1/C(=N/O)Nc1ccc(F)c(Br)c1)NC[C@H](O)CO [Example 175, 2-({4-[N-(3-bromo-4-fluorophenyl)-N′-hydroxycarbamimidoyl]-1,2,5-oxadiaxol-3-yl}sulfanyl)-N-[(2S)-2,3-dihydroxypropyl]acetamide] | 125 | 1720 | 223 | 281 | – |
| N#Cc1cc(N/C(=N\O)c2nonc2SCCNS(=O)(=O)C2CC2)ccc1F [Example 178, N-(3-cyano-4-fluorophenyl)-4-({2-[(cyclopropylsulfonyl)amino]ethyl}sulfanyl)-N′-hydroxy-1,2,5-oxadiazole-3-carboximidamide] | 60.8 | 1080 | 57.2 | 35.5 | – |
| N#Cc1cc(N/C(=N\O)c2nonc2SCCNS(N)(=O)=O)ccc1F [Example 181, N-(3-cyano-4-fluorophenyl)-N′-hydroxy-4-{[2-(sulfamoylamino)ethyl]sulfanyl}-1,2,5-oxadiazole-3-carboximidamide] | 119 | 3240 | 261 | 136 | – |
